Measured values taken from US20020025940A1, “Methods and compositions for sensitive and rapid, functional identification of genomic polynucleotides and use for cellular assays in drug discovery” (Aurora Biosciences Corporation, priority 1997, published 2002).

Key:
Format in all cases: cell-based, human
BLEC Jurkat clones = assay: Specificity of activated BLEC Jurkat clones, relative beta-lactamase activity; conditions: PMA 8 nM, Thaps 1 microM, CsA 100 nM, PHA 10 microgram/ml
Description: (§1) Isolated clones from PHA-induced (Example 6) and PHA-repressed (Example 7) procedures described above were characterized to determine the specificity of their modulation and time required for induction or repression. Clones were stimulated with multiple activators or inhibitors over a one to twenty-four hour time interval.
(§2) In this study, PMA, which is a PKC activator, Thapsigargin which increases intracellular calcium, PHA which activates the T-cell receptor pathway, and cyclosporin A which is a clinically approved immunosuppressant that inhibits the Ca^2+ dependent phosphates calcineurin were investigated for their ability to modulate beta-lactamase expression in PHA induced and repressed BLEC clones.

[1] = test system: clone C2 (3×NFAT response element linked to beta-lactamase, M1 muscurinic receptor); assay: Relative beta-lactamase activity of control clone C2; conditions: PMA 8 nM, Thaps 1 microM, CsA 100 nM, PHA 10 microgram/ml
Description: as §1, §2

[2] = test system: induced BLEC Jurkat clones; assay: Characterization of induced BLEC Jurkat clones, change in 460/530 ratio; conditions: PHA 10 microgram/ml, Thaps 1 microM, PMA 8 nM, Anti-CD3 2 microgram/ml
Description: These clones represent cells in which the trapping construct had integrated into a gene up regulated by PHA (T-cell) activation. Thus, these cells report the transcriptional activation of a gene upon cellular activation. Individual clones were identified and isolated by FACS using CCF2/AM to detect beta-lactamase activity. This clone isolation method, the induced sorting paradigm, used three sequential and independent stimulation and sorting protocols. […] These control cells were all green.
These isolated clones were expanded and tested for PHA inducibility by microscopic inspection with and without PHA stimulation in the presence of CCF2/AM. A total of fifty-five PHA inducible clones were identified using this procedure. The PHA inducibility for these clones ranged from a 1.5 to 40 fold change in the 460/530 ratio as compared to unstimulated control cells. Genomic Southern analysis using a DNA probe encoding beta-lactamase established that these clones represented 34 independent stable vector integration events. A list of clones obtained by the methods of the present invention and their characteristics is provided below in Table 6 and Table 7.
In addition to PHA inducible clones, Phobol 12-myristate 13-acetate (PMA) (Calbiochem), Thapsigargin (Thaps) (Calbiochem), and PMA+Thaps inducible clones were isolated using the general procedure set forth above using the indicated inducer rather than PHA. PMA is a specific activator of PKC (protein kinase C) and Thaps is a specific activator of intracellular calcium ion release (Thaps). These clones were isolated using three rounds of FACS using the general procedures described for the PHA inducible clones in Example 5. In such instances, other stimulants were substituted for PHA. PMA was provided at 8 nM, Thaps was provided at 1 microM. When these two stimulants were combined, their concentration was not changed. […] By using varied selection conditions, it is possible to isolate functionally distinct clones downstream of the desired signaling target.
Table 7 and Table 8 provide data similar to that provided in Table 5 for all of the clones obtained by the methods of Examples 5 to 7.

J389PT14/pcDNA3 = assay: Beta-lactamase expression in control cell line J389PTI4/pcDNA3; conditions: 30 μM Carbachol, 10 nM PHA, 6 hours, unstimulated = 1
Procedure: For example, a calcium-sensitive clone was transfected with a Gq-type GPCR by electroporation. Cells from clone J389PT14 were transfected by electroporation with a plasmid (pcDNA3 (Invitrogen) or pcDNA3-M1 (pcDNA3 that can operably express M1 receptor) to make cell lines J389PTI4/pcDNA3 and J389PTI4/pcDNA3-Ml). […] Thus, the J389PTI4/pcDNA3 cell is a control cell. […] These cells were contacted with CCF-2 dye for another 90 minutes. The 460/530 ratio changes were measured in a Cytoflour (Series 4000 Model) (Perceptive Biosystems) fluorescence plate reader and correspond to reporter gene expression.

## phytohemaglutinin [PHA]
BLEC Jurkat clones; clone J32-6D4
  Relative Beta-Lactamase Activity of the Clone by the Indicated Stimulus After 24 hours (% of maximum activated stimuli): 80%
BLEC Jurkat clones; clone J83 97-PPTR2 (repressed paradigm)
  Relative Beta-Lactamase Activity of the Clone by the Indicated Stimulus After 24 hours (% of maximum activated stimuli): 67%
BLEC Jurkat clones; clone J83-PI9
  Relative Beta-Lactamase Activity of the Clone by the Indicated Stimulus After 24 hours (% of maximum activated stimuli): 60%
BLEC Jurkat clones; clone J83-PTI8
  Relative Beta-Lactamase Activity of the Clone by the Indicated Stimulus After 24 hours (% of maximum activated stimuli): 60%
BLEC Jurkat clones; clone J389-PTI4
  Relative Beta-Lactamase Activity of the Clone by the Indicated Stimulus After 24 hours (% of maximum activated stimuli): 85%
[1]
  Relative Beta-Lactamase Activity of the Clone by the Indicated Stimulus After 24 hours (% of maximum activated stimuli): 30%
[2]; clone J83PI1
  Change in 460/530 ratio in the indicated clone by the following activator: 3-4
[2]; clone J83PI2
  Change in 460/530 ratio in the indicated clone by the following activator: 8
[2]; clone J83PI3
  Change in 460/530 ratio in the indicated clone by the following activator: 5-6
[2]; clone J83PI4
  Change in 460/530 ratio in the indicated clone by the following activator: 34
[2]; clone J83PI6
  Change in 460/530 ratio in the indicated clone by the following activator: 6-7
[2]; clone J83PI7
  Change in 460/530 ratio in the indicated clone by the following activator: 2
[2]; clone J83PI8
  Change in 460/530 ratio in the indicated clone by the following activator: 4-5
[2]; clone J83PI9
  Change in 460/530 ratio in the indicated clone by the following activator: 6
[2]; clone J83PI13
  Change in 460/530 ratio in the indicated clone by the following activator: 2-3
[2]; clone J83PI14
  Change in 460/530 ratio in the indicated clone by the following activator: 2
[2]; clone J83PI15
  Change in 460/530 ratio in the indicated clone by the following activator: 3-4
[2]; clone J83PI16
  Change in 460/530 ratio in the indicated clone by the following activator: 3-4
[2]; clone J83PI18
  Change in 460/530 ratio in the indicated clone by the following activator: 5-6
[2]; clone J83PI19
  Change in 460/530 ratio in the indicated clone by the following activator: 5-6
[2]; clone J97PI1
  Change in 460/530 ratio in the indicated clone by the following activator: 3-4
[2]; clone J97PI2
  Change in 460/530 ratio in the indicated clone by the following activator: 2-3
[2]; clone J97PI3
  Change in 460/530 ratio in the indicated clone by the following activator: 1-2
[2]; clone J97PI4
  Change in 460/530 ratio in the indicated clone by the following activator: 1-2
[2]; clone J97PI6
  Change in 460/530 ratio in the indicated clone by the following activator: 3-4
[2]; clone J97PI7
  Change in 460/530 ratio in the indicated clone by the following activator: 3-4
[2]; clone J97PI8
  Change in 460/530 ratio in the indicated clone by the following activator: 2.5-3
[2]; clone J97PI9
  Change in 460/530 ratio in the indicated clone by the following activator: 2-3
[2]; clone J97PI10
  Change in 460/530 ratio in the indicated clone by the following activator: 3-4
[2]; clone J97PI11
  Change in 460/530 ratio in the indicated clone by the following activator: 3-4
[2]; clone J97PI12
  Change in 460/530 ratio in the indicated clone by the following activator: 3-4
[2]; clone J97PI13
  Change in 460/530 ratio in the indicated clone by the following activator: 2-3
[2]; clone J97PI14
  Change in 460/530 ratio in the indicated clone by the following activator: 4-5
[2]; clone J97PI15
  Change in 460/530 ratio in the indicated clone by the following activator: 1-2
[2]; clone J97PI17
  Change in 460/530 ratio in the indicated clone by the following activator: 4-5
[2]; clone J97PI18
  Change in 460/530 ratio in the indicated clone by the following activator: 1-2
[2]; clone J97PI19
  Change in 460/530 ratio in the indicated clone by the following activator: 2-3
[2]; clone J97PI20
  Change in 460/530 ratio in the indicated clone by the following activator: 1-2
[2]; clone J97PI21
  Change in 460/530 ratio in the indicated clone by the following activator: 2-3
[2]; clone J97PI22
  Change in 460/530 ratio in the indicated clone by the following activator: 5-6
[2]; clone J97PI23
  Change in 460/530 ratio in the indicated clone by the following activator: 4-5
[2]; clone J97PI24
  Change in 460/530 ratio in the indicated clone by the following activator: 3-4
[2]; clone J97PI116
  Change in 460/530 ratio in the indicated clone by the following activator: 2-3
[2]; clone J325B5
  Change in 460/530 ratio in the indicated clone by the following activator: 7
[2]; clone J325B11
  Change in 460/530 ratio in the indicated clone by the following activator: 9
[2]; clone J325E1
  Change in 460/530 ratio in the indicated clone by the following activator: 8
[2]; clone J325E3
  Change in 460/530 ratio in the indicated clone by the following activator: 7
[2]; clone J325E6
  Change in 460/530 ratio in the indicated clone by the following activator: 11
[2]; clone J325G4
  Change in 460/530 ratio in the indicated clone by the following activator: 3-4
[2]; clone J326C9
  Change in 460/530 ratio in the indicated clone by the following activator: 4-5
[2]; clone J326D4
  Change in 460/530 ratio in the indicated clone by the following activator: 10
[2]; clone J326D7
  Change in 460/530 ratio in the indicated clone by the following activator: 10
[2]; clone J326F7
  Change in 460/530 ratio in the indicated clone by the following activator: 10
[2]; clone J326H4
  Change in 460/530 ratio in the indicated clone by the following activator: 10
[2]; clone J389PM2
  Change in 460/530 ratio in the indicated clone by the following activator: 4-5
[2]; clone J389PM3
  Change in 460/530 ratio in the indicated clone by the following activator: 3
[2]; clone J389PM5
  Change in 460/530 ratio in the indicated clone by the following activator: 4-5
[2]; clone J389PM7
  Change in 460/530 ratio in the indicated clone by the following activator: 1-2
[2]; clone J389PM8
  Change in 460/530 ratio in the indicated clone by the following activator: 2-3
[2]; clone J389PT4
  Change in 460/530 ratio in the indicated clone by the following activator: 15
[2]; clone J389PTt
  Change in 460/530 ratio in the indicated clone by the following activator: 5-6
[2]; clone J389TI1
  Change in 460/530 ratio in the indicated clone by the following activator: 1-2
[2]; clone J389TI4
  Change in 460/530 ratio in the indicated clone by the following activator: 0
J389PT14/pcDNA3
  Relative expression of beta-lactamase in cells exposed to the indicated stimuli: 12
